Patent publication US8138168B1 (Takeda Pharmaceutical Company Limited, priority 2007, dated 2012)

Target: T1, Recombinant human renin (Homo sapiens, UniProt P00797)
T1 construct: isolate the active form (residues 67-406); made in house; host or cells: FreeStyle 293-F cells (transient expression of pcDNA3.1(+)/hREN)
T1 sequence (P00797 67-406): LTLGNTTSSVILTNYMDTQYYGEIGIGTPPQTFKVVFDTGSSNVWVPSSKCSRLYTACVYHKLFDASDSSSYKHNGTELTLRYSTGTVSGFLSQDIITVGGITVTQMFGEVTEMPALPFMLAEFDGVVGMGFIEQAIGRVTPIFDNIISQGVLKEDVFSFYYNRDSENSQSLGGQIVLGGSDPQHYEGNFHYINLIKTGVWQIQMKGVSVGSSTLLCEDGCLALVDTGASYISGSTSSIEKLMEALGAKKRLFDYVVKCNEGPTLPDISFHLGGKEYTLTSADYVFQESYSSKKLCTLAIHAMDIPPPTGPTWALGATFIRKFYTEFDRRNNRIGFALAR
Assay: In vitro enzymatic activity assay of renin inhibitors (fluorogenic peptide substrate)
Type: biochemical
Settings: read-out: IC50 of Exemplified Compounds Against Renin
Summary of the method: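 Recombinant human renin (3 nM final) pre-incubated 10 min at 37 °C with compounds in pH 7.4 Hepes/EDTA/DTT/0.1 mg/mL BSA/Brij35 buffer (optionally plus 2% BSA), 5% DMSO final; fluorogenic QXL520/HiLyteFluo488 peptide substrate added.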

IC50	SMILES
< 100 nM	CC(=O)NCCn1c([C@@H]2CCCN(C(=O)C[C@H](N)Cc3ccc(-c4ccc(N)nc4)cc3)C2)nc2c(Cl)cccc21 [Compound 479, N-(2-(2-((R)-1-((R)-3-amino-4-(4-(6-aminopyridin-3-yl)phenyl)butanoyl)piperidin-3-yl)-4-chloro-1H-benzo[d]imidazol-1-yl)ethyl)acetamide]
< 100 nM	COC(=O)Nc1ccc(-c2ccc(C[C@@H](N)CC(=O)N3CCC[C@@H](c4nc5ccccc5n4CCNC(C)=O)C3)cc2)cc1 [Compound 457, methyl 4′-((R)-4-((R)-3-(1-(2-acetamidoethyl)-1H-benzo[d]imidazol-2-yl)piperidin-1-yl)-2-amino-4-oxobutyl)biphenyl-4-ylcarbamate]
> 1000 nM	COCCCn1c([C@@H]2CCCN(C(=O)C[C@H](N)Cc3cccnc3)C2)nc2ccccc21 [Compound 82, (R)-3-amino-1((R)-3-(1-(3-methoxypropyl)-1H-benzo[d]imidazol-2-yl)piperidin-1-yl)-4-(pyridin-3-yl)butan-1-one]
> 1000 nM	Cc1cc(C)cc(NC(=O)N2CCCC(c3nc4ccccc4[nH]3)C2)c1 (stereo not shown) [Compound 6, 3-(1H-benzo[d]imidazol-2-yl)-N-(3,5-dimethylphenyl)piperidine-1-carboxamide]
100 to 1000 nM	CN1CCOc2cc(-c3ccc(C[C@@H](N)CC(=O)N4CCC[C@@H](c5nc6ccccc6n5CCC(N)=O)C4)cc3)ccc21 [Compound 447, 3-(2-((R)-1-((R)-3-amino-4-(4-(4-methyl-3,4-dihydro-2H-benzo[b][1,4]oxazin-7-yl)phenyl)butanoyl)piperidin-3-yl)-1H-benzo[d]imidazol-1-yl)propanamide]
< 100 nM	COCCCn1c([C@@H]2CCCN(C(=O)C[C@H](N)CNC(=O)Nc3ccc4c(c3)OCCO4)C2)nc2ccccc21 [Compound 258, 1-((S)-2-amino-4-((R)-3-(1-(3-methoxypropyl)-1H-benzo[d]imidazol-2-yl)piperidin-1-yl)-4-oxobutyl)-3-(2,3-dihydrobenzo[b][1,4]dioxin-6-yl)urea]
100 to 1000 nM	COCCCn1c([C@@H]2CCCN(C(=O)[C@@H]3CN(S(=O)(=O)c4ccc5c(c4)CCO5)C[C@H]3N)C2)nc2ccccc21 [Compound 355, ((3R,4S)-4-amino-1-(2,3-dihydrobenzofuran-5-ylsulfonyl)pyrrolidin-3-y1)((R)-3-(1-(3-methoxypropyl)-1H-benzo[d]imidazol-2-yl)piperidin-1-yl)methanone]
100 to 1000 nM	COCCCn1c([C@@H]2CCCN(C(=O)C[C@H](N)CNC(=O)c3cc4ccccc4o3)C2)nc2ccccc21 [Compound 263, N-((S)-2-amino-4-((R)-3-(1-(3-methoxypropyl)-1H-benzo[d]imidazol-2-yl)piperidin-1-yl)-4-oxobutyl)benzofuran-2-carboxamide]
< 100 nM	CCOc1nc(-c2ccc(C[C@@H](N)CC(=O)N3CCC[C@@H](c4nc5ccccc5n4CCCOC)C3)cc2)cs1 [Compound 200, (R)-3-amino-4-(4-(2-ethoxythiazol-4-yl)phenyl)-1-((R)-3-(1-(3-methoxypropyl)-1H-benzo[d]imidazol-2-yl)piperidin-1-yl)butan-1-one]
< 100 nM	COCCCn1c([C@@H]2CCCN(C(=O)C[C@H](N)CNC(=O)c3ccc(-c4ccccc4F)o3)C2)nc2ccccc21 [Compound 260, N-((S)-2-amino-4-((R)-3-(1-(3-methoxypropyl)-1H-benzo[d]imidazol-2-yl)piperidin-1-yl)-4-oxobutyl)-5-(2-fluorophenyl)furan-2-carboxamide]
> 1000 nM	COCCCn1c([C@@H]2CCCN(C(=O)C[C@H](N)CNC(=O)c3ccco3)C2)nc2ccccc21 [Compound 325, N-((S)-2-amino-4-((R)-3-(1-(3-methoxypropyl)-1H-benzo[d]imidazol-2-yl)piperidin-1-yl)-4-oxobutyl)furan-2-carboxamide]
< 100 nM	COCCCn1c([C@@H]2CCCN(C(=O)C[C@H](N)Cc3ccc(-c4ccc5c(c4)CC(=O)N5)cc3)C2)nc2c(F)cccc21 [Compound 458, 5-(4-((R)-2-amino-4-((R)-3-(4-fluoro-1-(3-methoxypropyl)-1H-benzo[d]imidazol-2-yl)piperidin-1-yl)-4-oxobutyl)phenyl)indolin-2-one]
> 1000 nM	COCCCn1c([C@@H]2CCCN(C(=O)C[C@H](N)c3cccc(OC)c3)C2)nc2ccccc21 [Compound 121]
> 1000 nM	COCCCn1c([C@@H]2CCCN(C(=O)[C@@H]3CN(S(=O)(=O)c4ccccc4)C[C@H]3N)C2)nc2ccccc21 [Compound 384, ((3R,4S)-4-amino-1-(phenylsulfonyl)pyrrolidin-3-yl)((R)-3-(1-(3-methoxypropyl)-1H-benzo[d]imidazol-2-yl)piperidin-1-yl)methanone]
100 to 1000 nM	COCCCn1c([C@@H]2CCCN(C(=O)C[C@H](N)CNC(=O)c3ccc(C)c(C)c3)C2)nc2ccccc21 [Compound 293, N-((S)-2-amino-4-((R)-3-(1-(3-methoxypropyl)-1H-benzo[d]imidazol-2-yl)piperidin-1-yl)-4-oxobutyl)-3,4-dimethylbenzamide]
> 1000 nM	COCCCn1c([C@@]2(O)CCCN(C(=O)C[C@H](N)Cc3ccc(Cl)cc3)C2)nc2ccccc21 [Compound 248, (R)-3-amino-4-(4-chlorophenyl)-1((R)-3-hydroxy-3-(1-(3-methoxypropyl)-1H-benzo[d]imidazol-2-yl)piperidin-1-yl)butan-1-one]
100 to 1000 nM	CCOc1ccccc1NC(=O)NC[C@@H](N)CC(=O)N1CCC[C@@H](c2nc3ccccc3n2CCCOC)C1 [Compound 285, 1-((S)-2-amino-4-((R)-3-(1-(3-methoxypropyl)-1H-benzo[d]imidazol-2-yl)piperidin-1-yl)-4-oxobutyl)-3-(2-ethoxyphenyl)urea]
> 1000 nM	COC(=O)[C@H](CC(C)C)NC(=O)N1CCCC(c2nc3ccccc3[nH]2)C1 (stereo partly drawn) [Compound 19, (2S)-methyl 2-(3-(1H-benzo[d]imidazol-2-yl)piperidine-1-carboxamido)-4-methylpentanoate]
< 100 nM	COCCCn1c([C@@H]2CCCN(C(=O)C[C@H](N)Cc3ccc(-c4cccnc4OC)cc3)C2)nc2ccccc21 [Compound 163, (R)-3-amino-1-((R)-3-(1-(3-methoxypropyl)-1H-benzo[d]imidazol-2-yl)piperidin-1-yl)-4-(4-(2-methoxypyridin-3-yl)phenyl)butan-1-one]
< 100 nM	CCOCCNC(=O)c1ccc(-c2ccc(C[C@@H](N)CC(=O)N3CCC[C@@H](c4nc5ccccc5n4CCCOC)C3)cc2)cc1 [Compound 178, 4′-((R)-2-amino-4-((R)-3-(1-(3-methoxypropyl)-1H-benzo[d]imidazol-2-yl)piperidin-1-yl)-4-oxobutyl)-N-(2-ethoxyethyl)biphenyl-4-carboxamide]
100 to 1000 nM	COCCCn1c([C@@H]2CCCN(C(=O)[C@@H]3CN(S(=O)(=O)c4cccc(Oc5ccccc5)c4)C[C@H]3N)C2)nc2ccccc21 [Compound 368, ((3R,4S)-4-amino-1-(3-phenoxyphenylsulfonyl)pyrrolidin-3-y1)((R)-3-(1-(3-methoxypropyl)-1H-benzo[d]imidazol-2-yl)piperidin-1-yl)methanone]
> 1000 nM	CC(C)C[C@H](N)C(=O)N1CCCC(c2nc3ccccc3[nH]2)C1 (stereo partly drawn) [Compound 46, (2S)-1-(3-(1H-benzo[d]imidazol-2-yl)piperidin-1-yl)-2-amino-4-methylpentan-1-one]
100 to 1000 nM	COCCCn1c([C@@H]2CCCN(C(=O)[C@@H]3CN(S(=O)(=O)c4ccc(OC)c(OC)c4)C[C@H]3N)C2)nc2ccccc21 [Compound 372, ((3R,4S)-4-amino-1-(3,4-dimethoxyphenylsulfonyl)pyrrolidin-3-yl)((R)-3-(1-(3-methoxypropyl)-1H-benzo[d]imidazol-2-yl)piperidin-1-yl)methanone]
< 100 nM	COCCCn1c([C@@H]2CCCN(C(=O)C[C@H](N)Cc3ccc(-c4ccc5c(c4)OCCO5)cc3)C2)nc2c(F)cccc21 [Compound 455, (R)-3-amino-4-(4-(2,3-dihydrobenzo[b][1,4]dioxin-6-yl)phenyl)-1-((R)-3-(4-fluoro-1-(3-methoxypropyl)-1H-benzo[d]imidazol-2-yl)piperidin-1-yl)butan-1-one]
< 100 nM	COCCCn1c([C@@H]2CCCN(C(=O)C[C@H](N)Cc3ccc(-c4ccc(C#N)cc4)cc3)C2)nc2ccccc21 [Compound 164, 4′-((R)-2-amino-4-((R)-3-(1-(3-methoxypropyl)-1H-benzo[d]imidazol-2-yl)piperidin-1-yl)-4-oxobutyl)biphenyl-4-carbonitrile]
> 1000 nM	COCCCn1c(C2CCCN(C(=O)CC(N)Cc3ccc4ccccc4c3)C2)nc2ccc(=O)[nH]c21 [Compound 101, (R)-2-(1-(3-amino-4-(naphthalen-2-yl)butanoyl)piperidin-3-yl)-3-(3-methoxypropyl)-3H-imidazo[4,5-b]pyridin-5(4H)-one]
> 1000 nM	COCCCn1c([C@@H]2CCCN(C(=O)[C@@H]3CN(C(=O)c4c(Cl)cccc4Cl)C[C@H]3N)C2)nc2ccccc21 [Compound 414, ((3R,4S)-4-amino-1-(2,6-dichlorobenzoyl)pyrrolidin-3-yl)((R)-3-(1-(3-methoxypropyl)-1H-benzo[d]imidazol-2-yl)piperidin-1-yl)methanone]
> 1000 nM	COCCCn1c(C2CCCN(C(=O)C[C@H](N)c3ccccc3)C2)nc2ccccc21 (stereo partly drawn) [Compound 66, (3S)-3-amino-1-(3-(1-(3-methoxypropyl)-1H-benzo[d]imidazol-2-yl)piperidin-1-yl)-3-phenylpropan-1-one]
